Data as given in PMC4604124, “In Vitro Characterization of the Pharmacological Properties of the Anti-Cancer Chelator, Bp4eT, and Its Phase I Metabolites” (PLoS ONE, 2015).
“And” between values parts separate entries of the source, which are not always exact repeats. Equal entries are not always repeated. Where two headings read alike, the source gives them in different places.

Columns and labels:
[1] = system: MCF-7 human breast adenocarcinoma cells; assay: MTT cytotoxicity assay, MCF-7 cells; type: cell-based; conditions: for IC50: MTT, read-out: IC50
Method: (§1) For cytotoxicity experiments, cancer cells were seeded at a density of 5,000 (MCF-7), 10,000 (HL-60) or 2,000 cells/well (HCT116 and A549) in 96-well plates (TPP) for 24 h/37°C prior to the addition of examined agents. The non-cancerous cells, 3T3 and H9c2 cells, were cultured for 24 h/37°C in 96-well plates at a density of 10,000 cells/well, the medium was then changed to serum- and pyruvate-free DMEM (Sigma-Aldrich) and incubated with the cells for another 24 h/37°C. The cytotoxic effects of Bp4eT and its metabolites were studied at different concentrations after a 72 h/37°C incubation. In order to aid the dissolution of the lipophilic ligands, 0.1% dimethyl sulfoxide (v/v) (DMSO; Sigma-Aldrich) was present in the culture medium of all groups. At this concentration, DMSO had no effect on cellular proliferation or viability.
(§2) The viability of cells were determined using an MTT assay (Sigma-Aldrich) according to previously established methods. The optical density of soluble MTT was measured at λ = 570 nm, subtracting the λ = 690 nm background using a Tecan Infinite 200M plate reader (Tecan Group, Männedorf, Switzerland). The viability or proliferation of experimental groups was expressed as a percentage of the untreated controls (100%).
(§3) SigmaStat for Windows 3.5 (Systat Software, San Jose, CA, USA) statistical software package was utilized to analyze results. The data are expressed as the mean ± SD of a given number of experiments. Statistical significance was determined using a one-way ANOVA with a Bonferroni post-hoc test or Student’s t-test. The results were considered to be statistically significant when p < 0.05. The IC50 values were calculated using CalcuSyn 2.0 software (Biosoft, Cambridge, UK). Cell cycle analysis was evaluated using MultiCycle AV Software (Phoenix Flow Systems, San Diego, CA, USA).

[2] = system: A549 human lung adenocarcinoma cells; assay: MTT cytotoxicity assay, A549 cells; type: cell-based; conditions: for IC50: MTT
Method: as §1, §2, §3

[3] = system: 3T3 mouse embryo fibroblasts; assay: MTT cytotoxicity assay, 3T3 cells; type: cell-based; conditions: for MTT, relative to control (0 = 100): 3T3, 10 000 b/j
Method: as §1, §2, §3

[4] = system: caspase 8; assay: Caspase activity, luminescent kit, caspase 8; type: cell-based, human; conditions: for kaspáza 8, raw signal / kaspáza 8, signal / viabilita: individual experiments by date; for kaspáza 8, raw signal, průměry / kaspáza 8, % kontroly / kaspáza 8, signal / viabilita, průměry: mean; for kaspáza 8, % kontroly / kaspáza 8, signal / viabilita / kaspáza 8, signal / viabilita, průměry: normalised to viability
Method: To assess the effect of the compounds on caspase activity, MCF-7 cells were incubated with 100 nM Bp4eT or its metabolites for 3, 24 or 72 h/37°C in 96-well plates, as described above. The cells were then lysed by adding 100 μL of cold lysis buffer (100 mM HEPES, 10 mM CHAPS, 10 mM D-L-dithiothreitol, pH 7.4) to 100 μL of medium in each well. Lysates were immediately frozen at -80°C. Thawed lysates were used to assess caspase activity using luminescent kits for caspases 3/7, 8 and 9 (Promega, Madison, WI, USA). The luminescence was measured using the Tecan Infinite 200M plate reader. Caspase activity in the experimental groups was corrected according to the cellular viability of each group and expressed as a percentage of activity of the untreated control (100%).

## CCNC(=O)NN=C(c1ccccc1)c1ccccn1 [Z-Bp4eS, 2-benzoylpyridine 4-ethylsemicarbazone]
[1]; 3T3/MCF-7
  Therapeutic index, IC50 non-cancerous cells / IC50 neoplastic cells: >5.1
[1]; H9c2/MCF-7
  Therapeutic index, IC50 non-cancerous cells / IC50 neoplastic cells: 1.7
[1]; MCF-7, 72 h/37°C, mean ± SD, n ≥ 4
  IC50: 198 ± 20.9 µM
[1]; MCF-7, 5 000 b/j, průměr (mean)
  IC50: 198 µM
[1]; MCF-7, 5 000 b/j, single experiment (by date)
  IC50: 185 µM and 224 µM and 177 µM and 205 µM
[1]; MCF-7, 5 000 b/j, koncentrace 1 μM, průměr (mean)
  MTT, value relative to 0 μM = 100: 93.54
[1]; MCF-7, 5 000 b/j, koncentrace 1 μM, single experiment (by date)
  MTT, value relative to 0 μM = 100: 102.478 and 93.2821 and 90.3792 and 88.0305
[1]; MCF-7, 5 000 b/j, koncentrace 3 μM, průměr (mean)
  MTT, value relative to 0 μM = 100: 89.98
[1]; MCF-7, 5 000 b/j, koncentrace 3 μM, single experiment (by date)
  MTT, value relative to 0 μM = 100: 104.08 and 86.4853 and 85.3702 and 83.9685
[1]; MCF-7, 5 000 b/j, koncentrace 10 μM, průměr (mean)
  MTT, value relative to 0 μM = 100: 90.26
[1]; MCF-7, 5 000 b/j, koncentrace 10 μM, single experiment (by date)
  MTT, value relative to 0 μM = 100: 95.2561 and 95.1363 and 88.6166 and 84.693 and 87.5852
[1]; MCF-7, 5 000 b/j, koncentrace 30 μM, průměr (mean)
  MTT, value relative to 0 μM = 100: 93.09
[1]; MCF-7, 5 000 b/j, koncentrace 30 μM, single experiment (by date)
  MTT, value relative to 0 μM = 100: 93.8264 and 93.1628 and 90.8333 and 94.5401
[1]; MCF-7, 5 000 b/j, koncentrace 100 μM, průměr (mean)
  MTT, value relative to 0 μM = 100: 68.42
[1]; MCF-7, 5 000 b/j, koncentrace 100 μM, single experiment (by date)
  MTT, value relative to 0 μM = 100: 56.52 and 67.9071 and 73.7709 and 75.4946
[1]; MCF-7, 5 000 b/j, koncentrace 300 μM, průměr (mean)
  MTT, value relative to 0 μM = 100: 29.85
[1]; MCF-7, 5 000 b/j, koncentrace 300 μM, single experiment (by date)
  MTT, value relative to 0 μM = 100: 23.6355 and 38.2595 and 25.5292 and 31.9956
[1]; MCF-7, 5 000 b/j, koncentrace 1000 μM, průměr (mean)
  MTT, value relative to 0 μM = 100: 13.67
[1]; MCF-7, 5 000 b/j, koncentrace 1000 μM, single experiment (by date)
  MTT, value relative to 0 μM = 100: 18.442 and 16.1441 and 10.4709 and 9.64
[2]; 3T3/A549
  Therapeutic index, IC50 non-cancerous cells / IC50 neoplastic cells: >1.9
[2]; A549, 72 h/37°C, mean ± SD, n ≥ 4
  IC50: 536 ± 147 µM
[2]; A549, 2 000 b/j, 1 μM, průměr (mean), sheet Z-Bp4eS
  MTT, relative to control (0 = 100): 94.73
[2]; A549, 2 000 b/j, 1 μM, single experiment (date), sheet Z-Bp4eS
  MTT, relative to control (0 = 100): 96.1035 and 96.1124 and 90.1392 and 98.3089 and 94.9198 and 92.7894
[2]; A549, 2 000 b/j, 3 μM, průměr (mean), sheet Z-Bp4eS
  MTT, relative to control (0 = 100): 94.38
[2]; A549, 2 000 b/j, 3 μM, single experiment (date), sheet Z-Bp4eS
  MTT, relative to control (0 = 100): 93.9771 and 96.8848 and 87.0494 and 97.8403 and 95.4397 and 95.0776
[2]; A549, 2 000 b/j, 10 μM, průměr (mean), sheet Z-Bp4eS
  MTT, relative to control (0 = 100): 94.55
[2]; A549, 2 000 b/j, 10 μM, single experiment (date), sheet Z-Bp4eS
  MTT, relative to control (0 = 100): 94.0202 and 95.9602 and 87.4767 and 100.017 and 95.1483 and 94.6861
[2]; A549, 2 000 b/j, 30 μM, průměr (mean), sheet Z-Bp4eS
  MTT, relative to control (0 = 100): 91.68
[2]; A549, 2 000 b/j, 30 μM, single experiment (date), sheet Z-Bp4eS
  MTT, relative to control (0 = 100): 90.8876 and 93.251 and 83.1786 and 91.8017 and 95.6624 and 95.2834
[2]; A549, 2 000 b/j, 100 μM, průměr (mean), sheet Z-Bp4eS
  MTT, relative to control (0 = 100): 84.34
[2]; A549, 2 000 b/j, 100 μM, single experiment (date), sheet Z-Bp4eS
  MTT, relative to control (0 = 100): 76.9185 and 86.3352 and 79.6865 and 86.589 and 88.5447 and 87.9645
[2]; A549, 2 000 b/j, 300 μM, průměr (mean), sheet Z-Bp4eS
  MTT, relative to control (0 = 100): 74.88
[2]; A549, 2 000 b/j, 300 μM, single experiment (date), sheet Z-Bp4eS
  MTT, relative to control (0 = 100): 67.4475 and 78.3776 and 76.2041 and 77.4903
[2]; A549, 2 000 b/j, 1000 μM, průměr (mean), sheet Z-Bp4eS
  MTT, relative to control (0 = 100): 26.69
[2]; A549, 2 000 b/j, 1000 μM, single experiment (date), sheet Z-Bp4eS
  MTT, relative to control (0 = 100): 18.2318 and 35.0023 and 34.1521 and 19.3887
[2]; A549, 2 000 b/j, single experiment (date), sheet Z-Bp4eS
  IC50: 676 µM and 639 µM and 464 µM
[2]; H9c2/A549
  Therapeutic index, IC50 non-cancerous cells / IC50 neoplastic cells: 0.6
[2]; Homo sapiens, A549, A549, 2 000 b/j, průměr (mean), sheet Z-Bp4eS
  IC50: 536 µM
[2]; Homo sapiens, A549, A549, 2 000 b/j, single experiment (date), sheet Z-Bp4eS
  IC50: 364 µM
[3]; 3T3, 72 h/37°C, MTT, mean ± SD, n ≥ 4, read-out: IC50
  IC50: > 1000 µM
[3]; 1 μM, průměr (mean)
  MTT, relative to control (0 = 100): 99.81
[3]; 1 μM, single experiment (date)
  MTT, relative to control (0 = 100): 90.4217 and 112.179 and 103.613 and 93.692 and 99.1404
[3]; 3 μM, průměr (mean)
  MTT, relative to control (0 = 100): 93.98
[3]; 3 μM, single experiment (date)
  MTT, relative to control (0 = 100): 89.9896 and 95.9618 and 102.444 and 92.291 and 89.1987
[3]; 10 μM, průměr (mean)
  MTT, relative to control (0 = 100): 93.85
[3]; 10 μM, single experiment (date)
  MTT, relative to control (0 = 100): 91.4468 and 99.0627 and 95.1304 and 94.2734 and 89.336
[3]; 30 μM, průměr (mean)
  MTT, relative to control (0 = 100): 90.21
[3]; 30 μM, single experiment (date)
  MTT, relative to control (0 = 100): 100.856 and 90.0957 and 87.8236 and 82.0687
[3]; 100 μM, průměr (mean)
  MTT, relative to control (0 = 100): 73.57
[3]; 100 μM, single experiment (date)
  MTT, relative to control (0 = 100): 81.8752 and 74.6133 and 74.3643 and 63.4281
[3]; 300 μM, průměr (mean)
  MTT, relative to control (0 = 100): 72.55
[3]; 300 μM, single experiment (date)
  MTT, relative to control (0 = 100): 79.104 and 69.1035 and 70.1959 and 71.7888
[3]; 1000 μM, průměr (mean)
  MTT, relative to control (0 = 100): 63.36
[3]; 1000 μM, single experiment (date)
  MTT, relative to control (0 = 100): 73.2159 and 60.5042 and 61.05 and 58.6559
[4]; 3 hodiny
  kaspáza 8, raw signal: 1943.5 and 1086.5 and 1152 and 914.5
  kaspáza 8, raw signal, průměry: 1274.12
  kaspáza 8, % kontroly: 95.08 % kontroly
  kaspáza 8, signal / viabilita: 19.9524 and 11.1542 and 11.8267 and 9.388
  kaspáza 8, signal / viabilita, průměry: 13.0804
[4]; 24 hodin
  kaspáza 8, raw signal: 1728 and 1248 and 1958.5 and 1430.5
  kaspáza 8, raw signal, průměry: 1591.25
  kaspáza 8, % kontroly: 100.61 % kontroly
  kaspáza 8, signal / viabilita: 17.3743 and 12.5481 and 19.6919 and 14.3831
  kaspáza 8, signal / viabilita, průměry: 15.9994
[4]; 72 hodin
  kaspáza 8, raw signal: 6689.5 and 5535.5 and 6778.5 and 5867
  kaspáza 8, raw signal, průměry: 6217.62
  kaspáza 8, % kontroly: 96.15 % kontroly
  kaspáza 8, signal / viabilita: 71.5149 and 59.1779 and 72.4663 and 62.7218
  kaspáza 8, signal / viabilita, průměry: 66.4702
